Data: PubChem BioAssay (NCI)
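Results reflect a 48-hour exposure of cells in 96-well plates to compound at five concentrations. The concentration for full growth arrest is given as TGI.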

What follows are molecules tested on SNB-75 CNS (assay: growth of human tumour cells (NCI), 48 h).
In the case of `COc1c(C(C)C)cc2c3c1OC(=O)[C@@]31CCCC(C)(C)C1CC2` (some centres not stated), the TGI is reported as 55.7 µM. With `OCc1ccc(C2CC(c3ccco3)=NN2c2ccccc2)o1` (configuration not stated) the TGI was > 100 µM. Work on `COc1ccc(C2COc3cc(O)c(O)cc3C2)cc1` (configuration not stated) yielded a TGI of 164 µM. Work on `O=C1/C(=C/c2ccc(Cl)cc2)CSc2ccccc21` yielded a TGI of 72.7 µM. In the case of `CCCCN=C(c1ccccc1)N1CCOCC1`, the TGI is reported as 83.5 µM. In the case of `CCOC(=O)c1ccc(C)c(N=NN(C)C)c1`, the TGI is reported as > 100 µM. For `CC(C)CC(O)P(=O)(O)O` (configuration not stated), the TGI was > 100 µM. `Cc1ccc(S(=O)(=O)NC(=O)N[C@@H](Cc2cnc[nH]2)C(=O)O)cc1` was tested, and the TGI was > 100 µM. For `COc1cc2c3c(c1OC)C1(C=CC(=O)C=C1)C[C@H]3N(C)CC2`, the TGI was > 100 µM. `O=NN(CCCl)C(=O)NC1CCC(O)CC1` (configuration not stated) was tested, and the TGI was > 79.7 µM. For `CC(=O)NC1c2ccccc2C(C)(C)C12CCC1(CC2)OCCO1` (configuration not stated), the TGI was > 100 µM. With `[N-]=[N+]=NC1=C(c2ccccn2)C(=O)c2cccc3cccc1c23` the TGI was > 100 µM. For `CC1=NNC(=O)C1C(CC(=O)c1c[nH]c2ccccc12)C(=O)O` (configuration not stated), the TGI was > 100 µM. With `CC(C(O)Cc1ccccc1)N(C)N=Nc1ccc([N+](=O)[O-])cc1` (configuration not stated) the TGI was > 100 µM. For `O=C(CN(c1ccccc1)c1ccccc1)n1nnc2ccccc21`, the TGI was > 100 µM. `CSc1sc2ccccc2[s+]1` was tested, and the TGI was > 100 µM. In the case of `Cc1ccc(S(=O)(=O)C(C#N)c2nc3ccccc3nc2-n2ccnc2)cc1` (configuration not stated), the TGI is reported as > 100 µM. For `O=C1c2ccccc2C2(c3ccc(Cl)cc3)N[C@H]3CCCC[C@@H]3N12` (some centres not stated), the TGI was > 100 µM. In the case of `COC(=O)C1CCCN1C(=O)C(Cc1cn(S(=O)(=O)c2ccc(C)cc2)cn1)NC(=O)OC(C)(C)C` (configuration not stated), the TGI is reported as > 100 µM. For `CC(=O)O[C@]12CCCCCC1C1(O)C(O)CCCC[C@H]12` (some centres not stated), the TGI was > 100 µM. With `COC(=O)C1=C(C)NC(C)=C(C(=O)OC)C1c1nc2sccn2c1[N+](=O)[O-]` the TGI was > 100 µM. Work on `Cn1c(COC(=O)Nc2ccccc2)c(COC(=O)Nc2ccccc2)c2ccc3cc(Cl)c(Cl)cc3c21` yielded a TGI of 19.2 µM.

What follows are molecules tested on NCI-H460 lung (assay: growth of human tumour cells (NCI), 48 h).
In the case of `COc1c(C(C)C)cc2c3c1OC(=O)[C@@]31CCCC(C)(C)C1CC2` (some centres not stated), the TGI is reported as > 100 µM. With `OCc1ccc(C2CC(c3ccco3)=NN2c2ccccc2)o1` (configuration not stated) the TGI was > 100 µM. Molecule `COc1ccc(C2COc3cc(O)c(O)cc3C2)cc1` (configuration not stated) has a TGI of 213 µM. `O=C1/C(=C/c2ccc(Cl)cc2)CSc2ccccc21` was tested, and the TGI was > 100 µM. With `CCCCN=C(c1ccccc1)N1CCOCC1` the TGI was > 100 µM. `CCOC(=O)c1ccc(C)c(N=NN(C)C)c1` was tested, and the TGI was > 100 µM. `CC(C)CC(O)P(=O)(O)O` (configuration not stated) was tested, and the TGI was > 100 µM. For `Cc1ccc(S(=O)(=O)NC(=O)N[C@@H](Cc2cnc[nH]2)C(=O)O)cc1`, the TGI was > 100 µM. For `COc1cc2c3c(c1OC)C1(C=CC(=O)C=C1)C[C@H]3N(C)CC2`, the TGI was > 100 µM. With `O=NN(CCCl)C(=O)NC1CCC(O)CC1` (configuration not stated) the TGI was > 100 µM. `CC(=O)NC1c2ccccc2C(C)(C)C12CCC1(CC2)OCCO1` (configuration not stated) was tested, and the TGI was > 10 µM. In the case of `[N-]=[N+]=NC1=C(c2ccccn2)C(=O)c2cccc3cccc1c23`, the TGI is reported as > 100 µM. For `CC1=NNC(=O)C1C(CC(=O)c1c[nH]c2ccccc12)C(=O)O` (configuration not stated), the TGI was > 100 µM. For `Cc1ccc(O)c(-c2cscn2)c1`, the TGI was > 100 µM. Molecule `CC(C(O)Cc1ccccc1)N(C)N=Nc1ccc([N+](=O)[O-])cc1` (configuration not stated) has a TGI of 32.3 µM. For `O=C(CN(c1ccccc1)c1ccccc1)n1nnc2ccccc21`, the TGI was > 100 µM. `CSc1sc2ccccc2[s+]1` was tested, and the TGI was > 100 µM. `COc1cc(OC)c(C2c3cc4c(cc3OC(N3CCCC3)C2C)OCO4)c(OC)c1` (configuration not stated) gave a TGI of 32.5 µM. `Cc1ccc(S(=O)(=O)C(C#N)c2nc3ccccc3nc2-n2ccnc2)cc1` (configuration not stated) was tested, and the TGI was > 100 µM. With `COC(=O)C1CCCN1C(=O)C(Cc1cn(S(=O)(=O)c2ccc(C)cc2)cn1)NC(=O)OC(C)(C)C` (configuration not stated) the TGI was > 100 µM. With `CC(=O)O[C@]12CCCCCC1C1(O)C(O)CCCC[C@H]12` (some centres not stated) the TGI was > 100 µM. `COC(=O)C1=C(C)NC(C)=C(C(=O)OC)C1c1nc2sccn2c1[N+](=O)[O-]` was tested, and the TGI was > 100 µM. For `Cn1c(COC(=O)Nc2ccccc2)c(COC(=O)Nc2ccccc2)c2ccc3cc(Cl)c(Cl)cc3c21`, the TGI was 22.9 µM.

What follows are molecules tested on KM12 colon (assay: growth of human tumour cells (NCI), 48 h).
For `OCc1ccc(C2CC(c3ccco3)=NN2c2ccccc2)o1` (configuration not stated), the TGI was > 100 µM. For `COc1ccc(C2COc3cc(O)c(O)cc3C2)cc1` (configuration not stated), the TGI was 164 µM. With `O=C1/C(=C/c2ccc(Cl)cc2)CSc2ccccc21` the TGI was > 100 µM. For `CCCCN=C(c1ccccc1)N1CCOCC1`, the TGI was > 100 µM. In the case of `CCOC(=O)c1ccc(C)c(N=NN(C)C)c1`, the TGI is reported as > 100 µM. `CC(C)CC(O)P(=O)(O)O` (configuration not stated) was tested, and the TGI was > 100 µM. With `Cc1ccc(S(=O)(=O)NC(=O)N[C@@H](Cc2cnc[nH]2)C(=O)O)cc1` the TGI was > 100 µM. `COc1cc2c3c(c1OC)C1(C=CC(=O)C=C1)C[C@H]3N(C)CC2` was tested, and the TGI was > 100 µM. With `O=NN(CCCl)C(=O)NC1CCC(O)CC1` (configuration not stated) the TGI was > 100 µM. `CC(=O)NC1c2ccccc2C(C)(C)C12CCC1(CC2)OCCO1` (configuration not stated) was tested, and the TGI was > 100 µM. With `[N-]=[N+]=NC1=C(c2ccccn2)C(=O)c2cccc3cccc1c23` the TGI was > 100 µM. For `CC1=NNC(=O)C1C(CC(=O)c1c[nH]c2ccccc12)C(=O)O` (configuration not stated), the TGI was > 100 µM. In the case of `CC(C(O)Cc1ccccc1)N(C)N=Nc1ccc([N+](=O)[O-])cc1` (configuration not stated), the TGI is reported as 53.2 µM. For `CSc1sc2ccccc2[s+]1`, the TGI was > 100 µM. For `COc1cc(OC)c(C2c3cc4c(cc3OC(N3CCCC3)C2C)OCO4)c(OC)c1` (configuration not stated), the TGI was 30.2 µM. `Cc1ccc(S(=O)(=O)C(C#N)c2nc3ccccc3nc2-n2ccnc2)cc1` (configuration not stated) was tested, and the TGI was > 100 µM. In the case of `O=C1c2ccccc2C2(c3ccc(Cl)cc3)N[C@H]3CCCC[C@@H]3N12` (some centres not stated), the TGI is reported as > 100 µM. For `COC(=O)C1CCCN1C(=O)C(Cc1cn(S(=O)(=O)c2ccc(C)cc2)cn1)NC(=O)OC(C)(C)C` (configuration not stated), the TGI was > 100 µM. With `CC(=O)O[C@]12CCCCCC1C1(O)C(O)CCCC[C@H]12` (some centres not stated) the TGI was > 100 µM. `COC(=O)C1=C(C)NC(C)=C(C(=O)OC)C1c1nc2sccn2c1[N+](=O)[O-]` was tested, and the TGI was > 100 µM. In the case of `Cn1c(COC(=O)Nc2ccccc2)c(COC(=O)Nc2ccccc2)c2ccc3cc(Cl)c(Cl)cc3c21`, the TGI is reported as 23.4 µM. `O=c1c(C(c2ccc(Cl)cc2)c2c(O)c3ccccc3n(-c3ccccc3)c2=O)c(O)c2ccccc2n1-c1ccccc1` was tested, and the TGI was > 100 µM.

The molecules below were run on SNB-19 CNS (assay: growth of human tumour cells (NCI), 48 h).
`COc1c(C(C)C)cc2c3c1OC(=O)[C@@]31CCCC(C)(C)C1CC2` (some centres not stated) was tested, and the TGI was 51.8 µM. With `OCc1ccc(C2CC(c3ccco3)=NN2c2ccccc2)o1` (configuration not stated) the TGI was > 100 µM. In the case of `COc1ccc(C2COc3cc(O)c(O)cc3C2)cc1` (configuration not stated), the TGI is reported as 214 µM. With `O=C1/C(=C/c2ccc(Cl)cc2)CSc2ccccc21` the TGI was 39.4 µM. With `CCCCN=C(c1ccccc1)N1CCOCC1` the TGI was > 100 µM. `CCOC(=O)c1ccc(C)c(N=NN(C)C)c1` was tested, and the TGI was > 100 µM. With `CC(C)CC(O)P(=O)(O)O` (configuration not stated) the TGI was > 100 µM. In the case of `Cc1ccc(S(=O)(=O)NC(=O)N[C@@H](Cc2cnc[nH]2)C(=O)O)cc1`, the TGI is reported as > 100 µM. `COc1cc2c3c(c1OC)C1(C=CC(=O)C=C1)C[C@H]3N(C)CC2` was tested, and the TGI was > 100 µM. With `O=NN(CCCl)C(=O)NC1CCC(O)CC1` (configuration not stated) the TGI was > 100 µM. `CC(=O)NC1c2ccccc2C(C)(C)C12CCC1(CC2)OCCO1` (configuration not stated) was tested, and the TGI was > 100 µM. For `[N-]=[N+]=NC1=C(c2ccccn2)C(=O)c2cccc3cccc1c23`, the TGI was > 100 µM. In the case of `CC1=NNC(=O)C1C(CC(=O)c1c[nH]c2ccccc12)C(=O)O` (configuration not stated), the TGI is reported as > 100 µM. In the case of `Cc1ccc(O)c(-c2cscn2)c1`, the TGI is reported as > 100 µM. In the case of `CC(C(O)Cc1ccccc1)N(C)N=Nc1ccc([N+](=O)[O-])cc1` (configuration not stated), the TGI is reported as > 100 µM. `O=C(CN(c1ccccc1)c1ccccc1)n1nnc2ccccc21` was tested, and the TGI was > 100 µM. With `CSc1sc2ccccc2[s+]1` the TGI was > 100 µM. `COc1cc(OC)c(C2c3cc4c(cc3OC(N3CCCC3)C2C)OCO4)c(OC)c1` (configuration not stated) gave a TGI of 51.1 µM. In the case of `Cc1ccc(S(=O)(=O)C(C#N)c2nc3ccccc3nc2-n2ccnc2)cc1` (configuration not stated), the TGI is reported as > 100 µM. For `O=C1c2ccccc2C2(c3ccc(Cl)cc3)N[C@H]3CCCC[C@@H]3N12` (some centres not stated), the TGI was > 100 µM.
